The results in this text go back to ChEMBL document CHEMBL5356948, “Microtubule stabilising peptides: new paradigm towards management of neuronal disorders” (RSC Med Chem, 2023).

Peptide text beside a SMILES is read from it.

In one series the target is Tubulin. Description: Binding affinity to microtubules (unknown origin) assessed as dissociation constant. Format: protein-complex assay, Homo sapiens.
Series [1] concerns the target T1, Tubulin (Homo sapiens) (UniProt P68371+Q9H4B7+P0DPH7+P68366+Q13509+Q71U36+P04350+Q3ZCM7+P07437+P68363+Q9BQE3+Q6PEY2+Q13885+Q9BVA1+Q9BUF5). Description: Binding affinity to tubulin (unknown origin) assessed as binding constant by […] analysis. Format: protein-complex assay.
For series [2], the target named is T1, Tubulin (Homo sapiens). Description: Binding affinity to microtubules (unknown origin) assessed as binding constant by turbidity assay. The series is classed as protein-complex assay.
For series [3], the target named is T1, Tubulin (Homo sapiens). Description: Binding affinity to tubulin (unknown origin) assessed as binding constant. The series is classed as protein-complex assay.
Series [4] is described as follows: Ratio of drug concentration in CSF to plasma in Sprague-Dawley rat at 15 mg/kg,IV measured after 1 hrs. The series is classed as ADME, organism-based. The settings on record: CSF and plasma.

As to `CC[C@H](C)[C@H](NC(=O)[C@H](CCC(N)=O)NC(=O)[C@@H](NC(=O)[C@H](CO)NC(=O)CNC(=O)CNC(=O)CNC(=O)[C@@H]1CCCN1C(=O)[C@@H](NC(=O)[C@H](Cc1c[nH]cn1)NC(=O)[C@H](CCCCN)NC(=O)[C@H](CCCCN)NC(=O)CNC(=O)CNC(=O)CNC(=O)[C@@H](N)CS)C(C)C)C(C)C)C(=O)N[C@H](C(=O)N[C@@H](Cc1ccc(O)cc1)C(=O)N[C@@H](CCCCN)C(=O)N1CCC[C@H]1C(=O)N[C@H](C(=O)N[C@@H](CC(=O)O)C(=O)N[C@@H](CC(C)C)C(=O)O)C(C)C)C(C)C`, at Tubulin, the Kd (commonly the free concentration of one partner at which half of the binding sites on the other are occupied at equilibrium, for simple one-to-one binding) worked out at 64.1 µM. Regarding `CC[C@H](C)[C@H](NC(=O)[C@H](CO)NC(=O)[C@@H](NC(=O)[C@H](C)NC(=O)[C@@H](N)CC(N)=O)C(C)C)C(=O)N[C@@H](CCC(N)=O)C(=O)O` (H-NAVSIQ-OH), at Tubulin (Homo sapiens) [1], the Activity was 1.14 10^3/M. In the case of `CC(C)C[C@H](NC(=O)[C@H](Cc1ccccc1)NC(=O)[C@@H](NC(=O)[C@H](CCC(=O)O)NC(=O)[C@@H](N)CC(N)=O)C(C)C)C(=O)N[C@@H](CC(=O)O)C(=O)N[C@H](C(=O)N[C@@H](CCC(N)=O)C(=O)O)[C@@H](C)O` (H-NEVFLDTQ-OH), the Kb at Tubulin (Homo sapiens) [2] was 2.65 10^4/M. With `CC(C)C[C@H](NC(=O)[C@@H](N)CO)C(=O)N[C@@H](CCCCN)C(=O)N1CCC[C@H]1C(=O)N[C@@H](C)C(=O)N[C@@H](C)C(=O)N[C@@H](CC(N)=O)C(=O)N[C@@H](CC(C)C)C(=O)N1CCC[C@H]1C(=O)N[C@@H](CC(C)C)C(=O)N[C@@H](CCCNC(=N)N)C(=O)N[C@@H](Cc1ccccc1)C(=O)O` (H-SLKPAANLPLRF-OH), on Tubulin (Homo sapiens) [3], the Kb is 2.35 10^5/M. On to `CC[C@H](C)[C@H](NC(=O)[C@H](CO)NC(=O)[C@@H](NC(=O)[C@@H]1CCCN1C(=O)[C@H](C)NC(=O)[C@@H](N)CC(N)=O)C(C)C)C(=O)N1CCC[C@H]1C(=O)N[C@@H](CCC(N)=O)C(=O)O` [DAVUNETIDE], for which the Kp (commonly tissue or fluid exposure divided by exposure in the circulation) at 1 h in series [4] is 0.138.
